# Data as given in patent publication US4281121A, “1,3,4-Thiadiazole-2-carboxylic acid derivatives, process for making the same and fungicidal and nematocidal compositions containing same” (Schering Aktiengesellschaft, priority 1978, dated 1981).
# Test system: Pythium ultimum
# Assay: Threshold concentration test for use of the compounds against Pythium ultimum (infested soil, garden peas)
# Assay type: in vivo
# Design: key to root evaluation (1-4): 4: white roots without fungous necrosis; 3: white roots, minor fungous necrosis; 2: brown roots, already more pronounced fungous necrosis; 1: heavy fungous necrosis, roots rotted
# Conditions: 20 mg/l soil; 3 weeks
# Experimental: Threshold concentration test for use of the compounds against Pythium ultimum
# A 20% concentration of certain pulverulent active agents as listed below were mixed in uniform manner into a soil which had been heavily infested by Pythium ultimum. The thus treated soil was then placed into clay dishes of a capacity of 0.5 l earth. Without any intermediate time lapse 20 grain of garden peas (Pisum sativum L. convar. medullare Alef.) of the type "Wunder von Kelvedon" were then seeded into each of the clay dishes. After a cultivation period of three weeks at 20° to 24° C. in a hothouse the number of sound peas was determined and a root evaluation was carried out. The active agents amounts and results appear from the following table.
# The root evaluation was carried out on a scale from 1 to 4 as follows: […]
row,Structure (SMILES),root evaluation (1-4)
1,"CCCC[S+]([O-])c1nnc(C(N)=O)s1 (stereo not drawn) [5-butylsulfinyl-1,3,4-thiadiazole-2-carboxamide]",1
2,"CC(C)S(=O)(=O)c1nnc(C(N)=O)s1 [5-isopropylsulfonyl-1,3,4-thiadiazole-2-carboxamide]",4
3,"CCCCNC(=O)c1nnc([S+](C)[O-])s1 (stereo not drawn) [5-methylsulfinyl-1,3,4-thiadiazole-2-carboxylic acid-butylamide]",2
4,"COCCCNC(=O)c1nnc(S(C)(=O)=O)s1 [5-methylsulfonyl-1,3,4-thiadiazole-2-carboxylic acid-(3-methoxypropyl)-amide]",1

# Same assay, conditions: 20 mg/l soil; 20 grains per dish; 3 weeks at 20-24° C.
row,Structure (SMILES),number of sound peas
1,"CCCC[S+]([O-])c1nnc(C(N)=O)s1 (stereo not drawn) [5-butylsulfinyl-1,3,4-thiadiazole-2-carboxamide]",10
2,"CC(C)S(=O)(=O)c1nnc(C(N)=O)s1 [5-isopropylsulfonyl-1,3,4-thiadiazole-2-carboxamide]",17
3,"CCCCNC(=O)c1nnc([S+](C)[O-])s1 (stereo not drawn) [5-methylsulfinyl-1,3,4-thiadiazole-2-carboxylic acid-butylamide]",12
4,"COCCCNC(=O)c1nnc(S(C)(=O)=O)s1 [5-methylsulfonyl-1,3,4-thiadiazole-2-carboxylic acid-(3-methoxypropyl)-amide]",9

# Same assay, conditions: 40 mg/l soil; 3 weeks
row,Structure (SMILES),root evaluation (1-4)
1,"CCCC[S+]([O-])c1nnc(C(N)=O)s1 (stereo not drawn) [5-butylsulfinyl-1,3,4-thiadiazole-2-carboxamide]",4
2,"CC(C)S(=O)(=O)c1nnc(C(N)=O)s1 [5-isopropylsulfonyl-1,3,4-thiadiazole-2-carboxamide]",4
3,"CCCCNC(=O)c1nnc([S+](C)[O-])s1 (stereo not drawn) [5-methylsulfinyl-1,3,4-thiadiazole-2-carboxylic acid-butylamide]",4
4,"COCCCNC(=O)c1nnc(S(C)(=O)=O)s1 [5-methylsulfonyl-1,3,4-thiadiazole-2-carboxylic acid-(3-methoxypropyl)-amide]",4

# Same assay, conditions: 40 mg/l soil; 20 grains per dish; 3 weeks at 20-24° C.
row,Structure (SMILES),number of sound peas
1,"CCCC[S+]([O-])c1nnc(C(N)=O)s1 (stereo not drawn) [5-butylsulfinyl-1,3,4-thiadiazole-2-carboxamide]",15
2,"CC(C)S(=O)(=O)c1nnc(C(N)=O)s1 [5-isopropylsulfonyl-1,3,4-thiadiazole-2-carboxamide]",18
3,"CCCCNC(=O)c1nnc([S+](C)[O-])s1 (stereo not drawn) [5-methylsulfinyl-1,3,4-thiadiazole-2-carboxylic acid-butylamide]",15
4,"COCCCNC(=O)c1nnc(S(C)(=O)=O)s1 [5-methylsulfonyl-1,3,4-thiadiazole-2-carboxylic acid-(3-methoxypropyl)-amide]",20

# Same assay, conditions: 80 mg/l soil; 3 weeks
row,Structure (SMILES),root evaluation (1-4)
1,"CCCC[S+]([O-])c1nnc(C(N)=O)s1 (stereo not drawn) [5-butylsulfinyl-1,3,4-thiadiazole-2-carboxamide]",4
2,"CC(C)S(=O)(=O)c1nnc(C(N)=O)s1 [5-isopropylsulfonyl-1,3,4-thiadiazole-2-carboxamide]",4
3,"CCCCNC(=O)c1nnc([S+](C)[O-])s1 (stereo not drawn) [5-methylsulfinyl-1,3,4-thiadiazole-2-carboxylic acid-butylamide]",4
4,"COCCCNC(=O)c1nnc(S(C)(=O)=O)s1 [5-methylsulfonyl-1,3,4-thiadiazole-2-carboxylic acid-(3-methoxypropyl)-amide]",4

# Same assay, conditions: 80 mg/l soil; 20 grains per dish; 3 weeks at 20-24° C.
row,Structure (SMILES),number of sound peas
1,"CCCC[S+]([O-])c1nnc(C(N)=O)s1 (stereo not drawn) [5-butylsulfinyl-1,3,4-thiadiazole-2-carboxamide]",19
2,"CC(C)S(=O)(=O)c1nnc(C(N)=O)s1 [5-isopropylsulfonyl-1,3,4-thiadiazole-2-carboxamide]",19
3,"CCCCNC(=O)c1nnc([S+](C)[O-])s1 (stereo not drawn) [5-methylsulfinyl-1,3,4-thiadiazole-2-carboxylic acid-butylamide]",17
4,"COCCCNC(=O)c1nnc(S(C)(=O)=O)s1 [5-methylsulfonyl-1,3,4-thiadiazole-2-carboxylic acid-(3-methoxypropyl)-amide]",19

# Test system: Tilletia caries
# Assay: Treatment of oat seeds infested with Tilletia caries (spore germination)
# Assay type: in vivo
# Conditions: 10 g active agent per 100 kg
row,Structure (SMILES),% activity [%]
1,"CCCCNC(=O)c1nnc([S+](C)[O-])s1 (stereo not drawn) [5-methylsulfinyl-1,3,4-thiadiazole-2-carboxylic acid-butylamide]",99

# Same assay, conditions: 20 g active agent per 100 kg
row,Structure (SMILES),% activity [%]
1,"CCCC[S+]([O-])c1nnc(C(N)=O)s1 (stereo not drawn) [5-butylsulfinyl-1,3,4-thiadiazole-2-carboxamide]",95
2,"CCCCNC(=O)c1nnc([S+](C)[O-])s1 (stereo not drawn) [5-methylsulfinyl-1,3,4-thiadiazole-2-carboxylic acid-butylamide]",99.8

# Same assay, conditions: 50 g active agent per 100 kg
row,Structure (SMILES),% activity [%]
1,"CCCC[S+]([O-])c1nnc(C(N)=O)s1 (stereo not drawn) [5-butylsulfinyl-1,3,4-thiadiazole-2-carboxamide]",100
2,"CCCCNC(=O)c1nnc([S+](C)[O-])s1 (stereo not drawn) [5-methylsulfinyl-1,3,4-thiadiazole-2-carboxylic acid-butylamide]",100

# Test system: Piricularia oryzae
# Assay: not given
# Assay type: in vivo
# Conditions: concentration of active agent 0.1 (percentages); 5 days
row,Structure (SMILES),% activity [%]
1,"CCCC[S+]([O-])c1nnc(C(N)=O)s1 (stereo not drawn) [5-butylsulfinyl-1,3,4-thiadiazole-2-carboxamide]",93
2,"CC(C)S(=O)(=O)c1nnc(C(N)=O)s1 [5-isopropylsulfonyl-1,3,4-thiadiazole-2-carboxamide]",40
3,"COCCCNC(=O)c1nnc(S(C)(=O)=O)s1 [5-methylsulfonyl-1,3,4-thiadiazole-2-carboxylic acid-(3-methoxypropyl)-amide]",90

# Test system: Helminthosporium gramineum
# Assay: Seed treatment in open field tests for infestation by Helminthosporium gramineum (barley)
# Assay type: in vivo
# Conditions: summer barley; 50 g active agent/100 kg barley; about 3 months
# Experimental: Seed treatment in open field tests for infestation by Helminthosporium gramineum
# The active agents were used in the form of pulverulent compositions. After about 8 months in case of winter barley and after about 3 months in case of summer barley the infested plants were counted and the activity was calculated by the formula [formula]
row,Structure (SMILES),% activity [%]
1,"CCCCNC(=O)c1nnc([S+](C)[O-])s1 (stereo not drawn) [5-methylsulfinyl-1,3,4-thiadiazole-2-carboxylic acid-butylamide]",100

# Test system: Plasmopara viticola
# Assay: Prophylactic leaf treatment of grapevines in the hothouse against Plasmopara viticola
# Assay type: in vivo
# Conditions: concentration of active agent 0.001 (unit not given)
# Experimental: Effects of prophylactic leaf treatment of grapevines in the hothouse against Plasmopara viticola
# Young grapevine plants having from 5 to 8 leaves were sprayed dripping wet with the concentrations of active agents stated in the table below. After drying of the spray deposit the leaves were sprayed with an aqueous suspension of sporangia of the fungus (about 20,000 per ml); the spraying was applied to the bottom side of the leaves. The plants were then immediately incubated in a hothouse at a temperature of 22° to 24° C. and at maximum water saturation in the atmosphere. Beginning with the second day the humidity of the air was reduced for 3 to 4 days to normal level (30 to 70% saturation) and was then maintained for another day on the level of full saturation. Subsequently, the percentage portion of the fungus infested surface of each leaf was noted and the average per treatment was calculated in order to determine the fungicidal activity. This was done on the basis of the following formula: [formula]
# The active compounds were applied in the form of a 20% concentration spray powder.
row,Structure (SMILES),% activity [%]
1,"CCCC[S+]([O-])c1nnc(C(N)=O)s1 (stereo not drawn) [5-butylsulfinyl-1,3,4-thiadiazole-2-carboxamide]",75

# Same assay, conditions: concentration of active agent 0.005 (unit not given)
row,Structure (SMILES),% activity [%]
1,"CCCC[S+]([O-])c1nnc(C(N)=O)s1 (stereo not drawn) [5-butylsulfinyl-1,3,4-thiadiazole-2-carboxamide]",99.8

# Same assay, conditions: concentration of active agent 0.025 (unit not given)
row,Structure (SMILES),% activity [%]
1,"CCCC[S+]([O-])c1nnc(C(N)=O)s1 (stereo not drawn) [5-butylsulfinyl-1,3,4-thiadiazole-2-carboxamide]",100
2,"CCCCNC(=O)c1nnc([S+](C)[O-])s1 (stereo not drawn) [5-methylsulfinyl-1,3,4-thiadiazole-2-carboxylic acid-butylamide]",93

# Test system: Venturia inaequalis
# Assay: Prophylactic leaf treatment of apples in open field test against Venturia inaequalis
# Assay type: in vivo
# Conditions: concentration of active agent 0.005 (in gram); 3 weeks
row,Structure (SMILES),% activity [%]
1,"CCCCNC(=O)c1nnc([S+](C)[O-])s1 (stereo not drawn) [5-methylsulfinyl-1,3,4-thiadiazole-2-carboxylic acid-butylamide]",86

# Same assay, conditions: concentration of active agent 0.025 (in gram); 3 weeks
row,Structure (SMILES),% activity [%]
1,"CCCCNC(=O)c1nnc([S+](C)[O-])s1 (stereo not drawn) [5-methylsulfinyl-1,3,4-thiadiazole-2-carboxylic acid-butylamide]",99

# Test system: Helminthosporium gram
# Assay: not given
# Conditions: 10 g active agent per 100 kg; about 5 weeks
row,Structure (SMILES),% activity [%]
1,"CCCCNC(=O)c1nnc([S+](C)[O-])s1 (stereo not drawn) [5-methylsulfinyl-1,3,4-thiadiazole-2-carboxylic acid-butylamide]",67

# Same assay, conditions: 20 g active agent per 100 kg; about 5 weeks
row,Structure (SMILES),% activity [%]
1,"CCCCNC(=O)c1nnc([S+](C)[O-])s1 (stereo not drawn) [5-methylsulfinyl-1,3,4-thiadiazole-2-carboxylic acid-butylamide]",97

# Same assay, conditions: 50 g active agent per 100 kg; about 5 weeks
row,Structure (SMILES),% activity [%]
1,"CCCCNC(=O)c1nnc([S+](C)[O-])s1 (stereo not drawn) [5-methylsulfinyl-1,3,4-thiadiazole-2-carboxylic acid-butylamide]",100
